Laboratory results as given in patent US12594268B2, “Methods of treating Fabry disease in patients having a mutation in the GLA gene” (Amicus Therapeutics, Inc., priority 2018, dated 2026).
Changes are numbered by the printed parent chain.

Assays:
[1] = biological target: T1, α-Gal A mutant form S62delinsLA (Homo sapiens, UniProt P06280, INS61L/S62A); assay: α-Gal A activity in lysates of transfected HEK-293 cells, S62delinsLA; type: cell-based
T1 construct: expressed in transfected cells; host or cells: HEK-293
T1 sequence (P06280 with tags, fused parts or gaps INS61L/S62A): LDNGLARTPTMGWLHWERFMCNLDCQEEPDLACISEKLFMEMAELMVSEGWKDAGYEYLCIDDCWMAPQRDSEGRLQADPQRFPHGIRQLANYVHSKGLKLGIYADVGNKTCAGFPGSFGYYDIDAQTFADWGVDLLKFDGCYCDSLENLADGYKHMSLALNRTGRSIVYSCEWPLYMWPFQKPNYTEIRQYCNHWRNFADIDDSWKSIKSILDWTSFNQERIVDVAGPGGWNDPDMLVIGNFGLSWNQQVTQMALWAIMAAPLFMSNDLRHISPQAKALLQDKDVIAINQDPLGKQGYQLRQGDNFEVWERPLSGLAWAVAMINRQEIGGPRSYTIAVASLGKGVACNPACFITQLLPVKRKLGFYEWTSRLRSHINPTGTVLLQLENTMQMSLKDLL
Description: (§1) Baseline and 10 μM migalastat α-Gal A activity: Differences in the α-Gal A activity between lysates incubated in the absence and presence of 10 μM migalastat were determined using a one-tailed, Mann Whitney U test; an increase at 10 μM migalastat with a p<0.05 was considered significant.
(§2) 10 μM migalastat α-Gal A activity (% WT)=(α-Gal A activity in mutant transfected cell lysates incubated with 10 μM migalastat÷α-Gal A activity in wild-type transfected cell lysates without migalastat)*100.
(§3) Absolute increase (% WT)=is the 10 μM migalastat α-Gal A activity (% WT) minus the baseline α-Gal A activity (% WT).
(§4) Relative increase is the 10 μM migalastat α-Gal A activity in mutant transfected cell lysates÷baseline α-Gal A activity in mutant transfected cell lysates incubated without migalastat.

[2] = biological target: T2, α-Gal A mutant form R112L (Homo sapiens, UniProt P06280, R112L); assay: α-Gal A activity in lysates of transfected HEK-293 cells, R112L; type: cell-based
T2 construct: expressed in transfected cells; host or cells: HEK-293
T2 sequence (P06280 32-429 R112L): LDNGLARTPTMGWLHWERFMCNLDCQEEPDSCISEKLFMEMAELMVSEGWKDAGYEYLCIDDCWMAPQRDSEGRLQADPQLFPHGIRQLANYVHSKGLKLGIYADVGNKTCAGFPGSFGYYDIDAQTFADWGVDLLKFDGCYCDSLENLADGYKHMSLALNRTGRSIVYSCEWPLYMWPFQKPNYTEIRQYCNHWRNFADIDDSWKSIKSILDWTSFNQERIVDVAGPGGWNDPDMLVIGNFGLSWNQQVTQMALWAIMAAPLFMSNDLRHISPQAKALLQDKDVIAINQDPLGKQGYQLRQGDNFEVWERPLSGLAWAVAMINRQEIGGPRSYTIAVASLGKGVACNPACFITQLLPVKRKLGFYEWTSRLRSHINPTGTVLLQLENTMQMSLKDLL
Description: as §1, §2, §3, §4

[3] = tested on: mutant form of α-Gal A expressed in HEK-293 cells; assay: HEK assay amenability criteria (relative increase ≥1.20-fold and absolute increase ≥3.0% wild-type)
Description: The α-Gal A activity was measured in lysates prepared from HEK-293 cells transiently transfected with the indicated mutant form of α-Gal A and incubated in the absence or presence of 10 μM migalastat for 5 days. The α-Gal A activity is expressed as the nmoles of free 4-MU released per milligram of protein per hour (nmol/mg/hr). Baseline α-Gal A activity and α-Gal A activity after incubation with 10 μM migalastat, were additionally expressed as a percentage of baseline wild-type α-Gal A activity (% WT). The wild-type α-Gal A activity that was used to calculate these percentages was the average activity measured in lysates from wild-type transfected cells, incubated in the absence of migalastat, measured in parallel.

[4] = biological target: T3, α-Gal A mutant form N320H (Homo sapiens, UniProt P06280, N320H); assay: α-Gal A activity in lysates of transfected HEK-293 cells, N320H; type: cell-based
T3 construct: expressed in transfected cells; host or cells: HEK-293
T3 sequence (P06280 32-429 N320H): T2 sequence (P06280 32-429 R112L) with L81R, N289H
Description: as §1, §2, §3, §4

[5] = biological target: T4, α-Gal A mutant form I239M (Homo sapiens, UniProt P06280, I239M); assay: α-Gal A activity in lysates of transfected HEK-293 cells, I239M; type: cell-based
T4 construct: expressed in transfected cells; host or cells: HEK-293
T4 sequence (P06280 32-429 I239M): T2 sequence (P06280 32-429 R112L) with L81R, I208M
Description: as §1, §2, §3, §4

α-Gal A mutant form D33H = biological target: T5, α-Gal A mutant form D33H (Homo sapiens, UniProt P06280, D33H); assay: α-Gal A activity in lysates of transfected HEK-293 cells, D33H; type: cell-based
T5 construct: expressed in transfected cells; host or cells: HEK-293
T5 sequence (P06280 32-429 D33H): T2 sequence (P06280 32-429 R112L) with D2H, L81R
Description: as §1, §2, §3, §4

[6] = 10 μM migalastat minus baseline
[7] = 10 μM migalastat ÷ baseline activity
[8] = HEK-293 lysates, 10 μM migalastat, 5 days, mean ± SEM

OC[C@H]1NC[C@H](O)[C@@H](O)[C@H]1O [migalastat, (2R,3S,4R,5S)-2-(hydroxymethyl) piperdine-3,4,5-triol]
Absolute increase (% WT) [1, 6]: 20.9 % WT | Relative increase [1, 7]: 50.92 | 10 μM migalastat α-Gal A activity [1, 8]: 8115 ± 810 nmol/mg/h | 10 μM migalastat α-Gal A activity (% WT) [1, 8]: 21.3 ± 1.7 % WT | Absolute increase (% WT) ([2]; 10 μM migalastat minus baseline (baseline BLD)): 7.5 % WT | 10 μM migalastat α-Gal A activity (% WT) [2, 8]: 7.5 ± 1.1 % WT | 10 μM migalastat α-Gal A activity ([2]; HEK-293 lysates, 10 μM migalastat, 5 days, mean ± SEM, baseline BLD): 2364 ± 296 nmol/mg/h | in vitro response to incubation with migalastat (amenability) ([3]; Table 2, mutations D33H, G35A, Y88S, T194A, W204G, Y216S, Q250K, and R392T): met amenability criteria | in vitro response to incubation with migalastat (amenability) ([3]; Table 3, mutations printed as D33H, G35A, Y88S, T194A, W204G, Y216S, Q250K, and R392T): met amenability criteria | in vitro response to incubation with migalastat (amenability) ([3]; Table 4, mutations V22G, N34H, G80V, Q107R, Y152D, A156S, L189F, W204L, S238G, 1239M, A257V, P259Q, N320H, P323T, E338V, P380L, and T412P): met amenability criteria | Absolute increase (% WT) [4, 6]: 32.2 % WT | Relative increase [4, 7]: 2.59 | 10 μM migalastat α-Gal A activity [4, 8]: 22149 ± 1050 nmol/mg/h | 10 μM migalastat α-Gal A activity (% WT) [4, 8]: 52.9 ± 3.1 % WT | Absolute increase (% WT) [5, 6]: 55.5 % WT | Relative increase [5, 7]: 5.12 | 10 μM migalastat α-Gal A activity [5, 8]: 24827 ± 3056 nmol/mg/h | 10 μM migalastat α-Gal A activity (% WT) [5, 8]: 69.3 ± 6.9 % WT | Absolute increase (% WT) (α-Gal A mutant form D33H; [6]): 32.7 % WT | Relative increase (α-Gal A mutant form D33H; [7]): 1.93 | 10 nM migalastat α-Gal A activity (α-Gal A mutant form D33H; HEK-293 lysates, 10 nM migalastat as printed, 5 days, mean ± SEM): 24908 ± 1775 nmol/mg/h | 10 μM migalastat α-Gal A activity (% WT) (α-Gal A mutant form D33H; [8]): 68.8 ± 4.3 % WT
